Results from patent US9562085B2, “Antimicrobial peptide” (priority 2013, dated 2017).
Non-standard residues stand in square brackets, D forms with d. Residues, ends and D or L forms follow the SMILES beside them.

Test system: S. aureus JAR
Type: cell-based
Settings: for LC99.9 (μM) (50% plasma) / LC99.9 (μM) (PBS): JAR, 2 h
Procedure: S. aureus JAR is described in Campoccia et al. (Int. J. Artif. Organs, 2008 September; 31(9):841-7).
For the in vitro killing assay with P10 variants, S. aureus JAR ([…] CFU/ml) were incubated for 2 hours at 37° C. with various concentrations of the peptides in PBS or in PBS/human plasma (1/1, v/v). […] The LC99.9 is the average value of two independent experiments.

Row | Compound | LC99.9 (μM) (50% plasma) [µM] | LC99.9 (μM) (PBS) [µM] | antimicrobial activity, in words (statements referring to Tables 2-6)
1 | CC[C@@H](C)[C@@H](NC(=O)[C@H](NC(=O)[C@@H](CCC(=O)O)NC(=O)[C@@H](CCCCN)NC(=O)[C@@H](CC(C)C)NC(=O)[C@@H](CCCCN)NC(=O)[C@@H](CCCNC(=N)N)NC(=O)[C@@H](Cc1c[nH]c2ccccc12)NC(=O)[C@@H](CC(C)C)NC(=O)[C@@H](CCCNC(=N)N)NC(=O)[C@@H](CCC(N)=O)NC(=O)[C@H](NC(=O)[C@@H](CC(C)C)NC(=O)[C@@H](CCCNC(=N)N)NC(=O)[C@H](NC(=O)[C@@H](CC(C)C)NC(=O)[C@H](N)CCCNC(=N)N)[C@H](C)O)C(C)C)C(C)C)C(=O)N[C@H](CCCCN)C(=O)N[C@H](CCCCN)C(=O)N[C@H](Cc1ccc(O)cc1)C(=O)N[C@H](CCC(=O)O)C(=O)N[C@H](CCCNC(=N)N)C(=O)N[C@H](C)C(=O)N[C@H](CC(C)C)C(N)=O [Peptide 1241-03, rltrlvqrlwrklkevikkyeralB] (H-[dR][dL][dT][dR][dL][dV][dQ][dR][dL][dW][dR][dK][dL][dK][dE][dV][dI][dK][dK][dY][dE][dR][dA][dL]-NH2) | >102.4 | 3.2 | possesses antimicrobial activity
2 | CC[C@H](C)[C@H](NC(=O)[C@H](CCCCN)NC(=O)[C@H](CCCCN)NC(=O)[C@H](Cc1ccc(O)cc1)NC(=O)[C@H](CCC(=O)O)NC(=O)[C@H](CCCNC(=N)N)NC(=O)[C@H](C)NC(=O)[C@@H](CC(C)C)NC(C)=O)C(=O)N[C@H](C(=O)N[C@@H](CCC(=O)O)C(=O)N[C@@H](CCCCN)C(=O)N[C@@H](CC(C)C)C(=O)N[C@@H](CCCCN)C(=O)N[C@@H](CCCNC(=N)N)C(=O)N[C@@H](Cc1c[nH]c2ccccc12)C(=O)N[C@@H](CC(C)C)C(=O)N[C@@H](CCCNC(=N)N)C(=O)N[C@@H](CCC(N)=O)C(=O)N[C@H](C(=O)N[C@@H](CC(C)C)C(=O)N[C@@H](CCCNC(=N)N)C(=O)N[C@H](C(=O)N[C@@H](CC(C)C)C(=O)N[C@@H](CCCNC(=N)N)C(N)=O)[C@@H](C)O)C(C)C)C(C)C [Peptide 1301-1, JlAREYKKIVEKLKRWLRQVLRTLRB] (Ac-[dL]AREYKKIVEKLKRWLRQVLRTLR-NH2) | 38.4 | 0.6 | –
3 | CC[C@H](C)[C@H](NC(=O)[C@H](CCCCN)NC(=O)[C@H](CCCCN)NC(=O)[C@H](Cc1ccc(O)cc1)NC(=O)[C@H](CCC(=O)O)NC(=O)[C@H](CCCNC(=N)N)NC(=O)[C@@H](C)NC(=O)[C@H](CC(C)C)NC(C)=O)C(=O)N[C@H](C(=O)N[C@@H](CCC(=O)O)C(=O)N[C@@H](CCCCN)C(=O)N[C@@H](CC(C)C)C(=O)N[C@@H](CCCCN)C(=O)N[C@@H](CCCNC(=N)N)C(=O)N[C@@H](Cc1c[nH]c2ccccc12)C(=O)N[C@@H](CC(C)C)C(=O)N[C@@H](CCCNC(=N)N)C(=O)N[C@@H](CCC(N)=O)C(=O)N[C@H](C(=O)N[C@@H](CC(C)C)C(=O)N[C@@H](CCCNC(=N)N)C(=O)N[C@H](C(=O)N[C@@H](CC(C)C)C(=O)N[C@@H](CCCNC(=N)N)C(N)=O)[C@@H](C)O)C(C)C)C(C)C [Peptide 1301-2, JLaREYKKIVEKLKRWLRQVLRTLRB] (Ac-L[dA]REYKKIVEKLKRWLRQVLRTLR-NH2) | 38.4 | 0.6 | –
4 | CC[C@H](C)[C@H](NC(=O)[C@H](CCCCN)NC(=O)[C@H](CCCCN)NC(=O)[C@H](Cc1ccc(O)cc1)NC(=O)[C@H](CCC(=O)O)NC(=O)[C@@H](CCCNC(=N)N)NC(=O)[C@H](C)NC(=O)[C@H](CC(C)C)NC(C)=O)C(=O)N[C@H](C(=O)N[C@@H](CCC(=O)O)C(=O)N[C@@H](CCCCN)C(=O)N[C@@H](CC(C)C)C(=O)N[C@@H](CCCCN)C(=O)N[C@@H](CCCNC(=N)N)C(=O)N[C@@H](Cc1c[nH]c2ccccc12)C(=O)N[C@@H](CC(C)C)C(=O)N[C@@H](CCCNC(=N)N)C(=O)N[C@@H](CCC(N)=O)C(=O)N[C@H](C(=O)N[C@@H](CC(C)C)C(=O)N[C@@H](CCCNC(=N)N)C(=O)N[C@H](C(=O)N[C@@H](CC(C)C)C(=O)N[C@@H](CCCNC(=N)N)C(N)=O)[C@@H](C)O)C(C)C)C(C)C [Peptide 1301-3, JLArEYKKIVEKLKRWLRQVLRTLRB] (Ac-LA[dR]EYKKIVEKLKRWLRQVLRTLR-NH2) | 38.4 | 0.6 | –
